From the SangsterLogP compilation

Row | logP | SMILES
1 | 3.7 | C=C(Cl)COCC(Cn1cncn1)c1ccc(Cl)cc1Cl (stereo not drawn)
2 | 4.21 | Clc1ccc(C(COCC=Cc2ccccc2)Cn2cncn2)c(Cl)c1 (stereo not drawn)
3 | 4.84 | CC(C)(C)c1ccc(COCC(Cn2cncn2)c2ccc(Cl)cc2Cl)cc1 (stereo not drawn)
4 | 4.71 | Clc1ccc(COCC(Cn2cncn2)c2ccc(Cl)cc2Cl)c(Cl)c1 (stereo not drawn)
5 | 4.77 | Clc1ccc(C(COCCCc2ccccc2)Cn2cncn2)c(Cl)c1 (stereo not drawn)
6 | 2.93 | C#CCOCC(Cn1cncn1)c1ccc(Cl)cc1Cl (stereo not drawn)
7 | 3.83 | Clc1ccc(C(COCc2ccccc2)Cn2cncn2)c(Cl)c1 (stereo not drawn)
8 | 3.72 | C=C(C)COCC(Cn1cncn1)c1ccc(Cl)cc1Cl (stereo not drawn)
9 | 4.42 | Clc1ccc(C(COCc2cccs2)Cn2cncn2)c(Cl)c1 (stereo not drawn)
10 | 4.46 | Clc1ccc(C(COCc2ccc(OCc3ccccc3)cc2)Cn2cncn2)c(Cl)c1 (stereo not drawn)
11 | 0.36 | N#CCCOCC(Cn1cncn1)c1ccc(Cl)cc1Cl (stereo not drawn)
12 | 4.58 | Clc1ccc(C(COCc2cccc(Oc3ccccc3)c2)Cn2cncn2)c(Cl)c1 (stereo not drawn)
13 | 4.48 | Clc1ccc(C(COCc2ccc3ccccc3c2)Cn2cncn2)c(Cl)c1 (stereo not drawn)
14 | 3.85 | COc1cccc(COCC(Cn2cncn2)c2ccc(Cl)cc2Cl)c1 (stereo not drawn)
15 | 3.72 | O=[N+]([O-])c1ccc(COCC(Cn2cncn2)c2ccc(Cl)cc2Cl)cc1 (stereo not drawn)
16 | 4.29 | Clc1ccc(C(COCc2ccc(-c3ccccc3)cc2)Cn2cncn2)c(Cl)c1 (stereo not drawn)
17 | 3.91 | CC(C)=CCOCC(Cn1cncn1)c1ccc(Cl)cc1Cl (stereo not drawn)

Row | SMILES | logP
18 | C=CCOCC(Cn1cncn1)c1ccc(Cl)cc1Cl (stereo not drawn) | 3.49
